One series concerns the target T1, α2C (h) (Homo sapiens, UniProt P18825).
T1 construct: host or cells: CHO cells
T1 sequence (P18825 1-462): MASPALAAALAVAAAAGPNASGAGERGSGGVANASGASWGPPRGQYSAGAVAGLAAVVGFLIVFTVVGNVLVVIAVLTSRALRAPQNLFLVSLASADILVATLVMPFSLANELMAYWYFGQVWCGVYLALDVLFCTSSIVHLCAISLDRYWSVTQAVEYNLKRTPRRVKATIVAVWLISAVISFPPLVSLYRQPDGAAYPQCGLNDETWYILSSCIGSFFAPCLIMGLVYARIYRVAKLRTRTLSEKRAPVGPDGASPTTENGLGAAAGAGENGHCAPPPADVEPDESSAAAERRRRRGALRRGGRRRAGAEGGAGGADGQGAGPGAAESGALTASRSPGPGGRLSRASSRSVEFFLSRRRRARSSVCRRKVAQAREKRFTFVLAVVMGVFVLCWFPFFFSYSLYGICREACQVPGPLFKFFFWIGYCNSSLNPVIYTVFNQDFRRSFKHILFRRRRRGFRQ
It is filed as binding. The following applies: 1 h.

A further series addresses T2, GABA transaminase (Rattus norvegicus, UniProt P50554).
T2 construct: rat brain; from tissue; host or cells: rat brain
The experiment in a line: enzyme assay. As to conditions: 1.0E-06 M. It is filed as biochemical.

The nature of series [1]: Brain homogenate assay (unbound fraction in brain). It is filed as in vitro ADME. The following applies: rat. As to the method:
Frozen rat brains were homogenized in PBS buffer (dilution factor D = 4). The homogenate was spiked with test compounds (1 μM final concentration, final concentration of DMSO was 0.1%) and subsequently dialyzed against PBS buffer for 8 hrs at 37°C in rapid equilibrium dialysis cells (RED-device, Pierce). At the end of the dialysis period, the dialysate was transferred into reaction tubes and mixed with an analytical internal standard. Tissue homogenate was added to buffer samples and buffer was added to tissue samples to ensure identical matrix composition for bioanalytical measurement. After protein precipitation using acetonitrile, samples were measured by LC-MS/MS. The free fraction was calculated as fu,app = (CPBS/Chomogenate). Since the brains were homogenized in the buffer, the observed free fraction values (fu,app) were extrapolated to the fractions unbound in the brain (fu*) based on the dilution (D) using the following formula: fu*=(1/D)/((1/fu,app−1)+1/D).

The conditions of series [2]: C57BL/6, mouse, in vivo.
For a further series, the target named is GABAB(1b) (h) (Homo sapiens, UniProt Q9UBS5). The experiment in a line: biochemical.
For another series, the system named is TR (TH). It is filed as binding, rat. The following applies: 1.0E-06 M.
A further series addresses PDE4D2 (h) (Homo sapiens, UniProt Q08499). The experiment in a line: biochemical. The following applies: 1.0E-06 M.
The next series addresses p38α kinase (h) (Homo sapiens, UniProt Q16539). The experiment in a line: enzyme assay. It is filed as biochemical. The following applies: 1.0E-06 M.
In series [3] the target is T3, choline transporter (CHT1) (h) (Homo sapiens, UniProt Q9GZV3).
T3 construct: host or cells: CHO cells
T3 sequence (Q9GZV3 1-580): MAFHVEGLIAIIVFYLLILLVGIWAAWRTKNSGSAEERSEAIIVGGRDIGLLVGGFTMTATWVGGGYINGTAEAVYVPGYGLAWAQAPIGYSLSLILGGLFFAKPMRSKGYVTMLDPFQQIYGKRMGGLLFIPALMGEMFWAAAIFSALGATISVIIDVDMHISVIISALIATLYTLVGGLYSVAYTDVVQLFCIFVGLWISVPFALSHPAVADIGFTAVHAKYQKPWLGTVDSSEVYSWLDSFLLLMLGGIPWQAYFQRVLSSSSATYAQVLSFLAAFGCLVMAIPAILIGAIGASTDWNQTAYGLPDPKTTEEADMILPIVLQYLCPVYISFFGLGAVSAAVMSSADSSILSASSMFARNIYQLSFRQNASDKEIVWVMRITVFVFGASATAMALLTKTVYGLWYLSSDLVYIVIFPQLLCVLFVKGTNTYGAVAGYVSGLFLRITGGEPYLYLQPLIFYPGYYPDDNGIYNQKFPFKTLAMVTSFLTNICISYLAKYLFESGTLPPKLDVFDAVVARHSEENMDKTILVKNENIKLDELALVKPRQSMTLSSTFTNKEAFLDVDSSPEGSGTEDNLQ
It is filed as binding. The following applies: 1.0E-06 M.

In a further series the target is T4, MCH1 (h) (Homo sapiens, UniProt Q99705).
T4 construct: host or cells: CHO cells
It is filed as binding. The following applies: 1.0E-06 M.

The target in another series is sst4 (h) (Homo sapiens, UniProt P31391). It is filed as binding. As to conditions: 1.0E-06 M.
A further series relates to ATPase (Na+/K+). The experiment in a line: enzyme assay. It is filed as biochemical, porcine. As to conditions: 1.0E-06 M.
Another series concerns NMDA. It is filed as binding, rat. As to conditions: 1.0E-06 M.
The next series has as its target T5, motilin (h) (Homo sapiens, UniProt O43193).
T5 construct: host or cells: CHO cells
It is filed as binding.

In the next series the target is Ca2+ channel (N) (Rattus norvegicus, UniProt Q02294). The experiment in a line: biochemical. It is filed as binding.
In series [4] the target is glycine (strychnine-insensitive) (Rattus norvegicus, UniProt P35439). It is filed as binding.

Like-named read-outs stand apart in the source and are kept apart here.

PDE4D2 (h), sequence (Q08499 303-809 limits assumed): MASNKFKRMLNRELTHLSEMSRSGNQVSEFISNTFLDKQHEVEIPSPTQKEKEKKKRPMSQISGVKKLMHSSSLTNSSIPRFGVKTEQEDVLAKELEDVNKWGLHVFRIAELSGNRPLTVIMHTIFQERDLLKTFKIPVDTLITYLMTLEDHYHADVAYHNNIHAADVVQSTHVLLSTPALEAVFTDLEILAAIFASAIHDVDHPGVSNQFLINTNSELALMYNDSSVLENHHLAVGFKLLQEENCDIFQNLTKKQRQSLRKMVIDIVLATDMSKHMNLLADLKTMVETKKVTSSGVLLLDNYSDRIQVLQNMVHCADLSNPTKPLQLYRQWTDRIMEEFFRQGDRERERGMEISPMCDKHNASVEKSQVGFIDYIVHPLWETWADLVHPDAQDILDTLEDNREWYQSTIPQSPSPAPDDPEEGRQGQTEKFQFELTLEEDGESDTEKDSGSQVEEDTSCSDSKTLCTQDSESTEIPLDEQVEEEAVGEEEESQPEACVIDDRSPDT
Ca2+ channel (N), sequence (Q02294 whole entry): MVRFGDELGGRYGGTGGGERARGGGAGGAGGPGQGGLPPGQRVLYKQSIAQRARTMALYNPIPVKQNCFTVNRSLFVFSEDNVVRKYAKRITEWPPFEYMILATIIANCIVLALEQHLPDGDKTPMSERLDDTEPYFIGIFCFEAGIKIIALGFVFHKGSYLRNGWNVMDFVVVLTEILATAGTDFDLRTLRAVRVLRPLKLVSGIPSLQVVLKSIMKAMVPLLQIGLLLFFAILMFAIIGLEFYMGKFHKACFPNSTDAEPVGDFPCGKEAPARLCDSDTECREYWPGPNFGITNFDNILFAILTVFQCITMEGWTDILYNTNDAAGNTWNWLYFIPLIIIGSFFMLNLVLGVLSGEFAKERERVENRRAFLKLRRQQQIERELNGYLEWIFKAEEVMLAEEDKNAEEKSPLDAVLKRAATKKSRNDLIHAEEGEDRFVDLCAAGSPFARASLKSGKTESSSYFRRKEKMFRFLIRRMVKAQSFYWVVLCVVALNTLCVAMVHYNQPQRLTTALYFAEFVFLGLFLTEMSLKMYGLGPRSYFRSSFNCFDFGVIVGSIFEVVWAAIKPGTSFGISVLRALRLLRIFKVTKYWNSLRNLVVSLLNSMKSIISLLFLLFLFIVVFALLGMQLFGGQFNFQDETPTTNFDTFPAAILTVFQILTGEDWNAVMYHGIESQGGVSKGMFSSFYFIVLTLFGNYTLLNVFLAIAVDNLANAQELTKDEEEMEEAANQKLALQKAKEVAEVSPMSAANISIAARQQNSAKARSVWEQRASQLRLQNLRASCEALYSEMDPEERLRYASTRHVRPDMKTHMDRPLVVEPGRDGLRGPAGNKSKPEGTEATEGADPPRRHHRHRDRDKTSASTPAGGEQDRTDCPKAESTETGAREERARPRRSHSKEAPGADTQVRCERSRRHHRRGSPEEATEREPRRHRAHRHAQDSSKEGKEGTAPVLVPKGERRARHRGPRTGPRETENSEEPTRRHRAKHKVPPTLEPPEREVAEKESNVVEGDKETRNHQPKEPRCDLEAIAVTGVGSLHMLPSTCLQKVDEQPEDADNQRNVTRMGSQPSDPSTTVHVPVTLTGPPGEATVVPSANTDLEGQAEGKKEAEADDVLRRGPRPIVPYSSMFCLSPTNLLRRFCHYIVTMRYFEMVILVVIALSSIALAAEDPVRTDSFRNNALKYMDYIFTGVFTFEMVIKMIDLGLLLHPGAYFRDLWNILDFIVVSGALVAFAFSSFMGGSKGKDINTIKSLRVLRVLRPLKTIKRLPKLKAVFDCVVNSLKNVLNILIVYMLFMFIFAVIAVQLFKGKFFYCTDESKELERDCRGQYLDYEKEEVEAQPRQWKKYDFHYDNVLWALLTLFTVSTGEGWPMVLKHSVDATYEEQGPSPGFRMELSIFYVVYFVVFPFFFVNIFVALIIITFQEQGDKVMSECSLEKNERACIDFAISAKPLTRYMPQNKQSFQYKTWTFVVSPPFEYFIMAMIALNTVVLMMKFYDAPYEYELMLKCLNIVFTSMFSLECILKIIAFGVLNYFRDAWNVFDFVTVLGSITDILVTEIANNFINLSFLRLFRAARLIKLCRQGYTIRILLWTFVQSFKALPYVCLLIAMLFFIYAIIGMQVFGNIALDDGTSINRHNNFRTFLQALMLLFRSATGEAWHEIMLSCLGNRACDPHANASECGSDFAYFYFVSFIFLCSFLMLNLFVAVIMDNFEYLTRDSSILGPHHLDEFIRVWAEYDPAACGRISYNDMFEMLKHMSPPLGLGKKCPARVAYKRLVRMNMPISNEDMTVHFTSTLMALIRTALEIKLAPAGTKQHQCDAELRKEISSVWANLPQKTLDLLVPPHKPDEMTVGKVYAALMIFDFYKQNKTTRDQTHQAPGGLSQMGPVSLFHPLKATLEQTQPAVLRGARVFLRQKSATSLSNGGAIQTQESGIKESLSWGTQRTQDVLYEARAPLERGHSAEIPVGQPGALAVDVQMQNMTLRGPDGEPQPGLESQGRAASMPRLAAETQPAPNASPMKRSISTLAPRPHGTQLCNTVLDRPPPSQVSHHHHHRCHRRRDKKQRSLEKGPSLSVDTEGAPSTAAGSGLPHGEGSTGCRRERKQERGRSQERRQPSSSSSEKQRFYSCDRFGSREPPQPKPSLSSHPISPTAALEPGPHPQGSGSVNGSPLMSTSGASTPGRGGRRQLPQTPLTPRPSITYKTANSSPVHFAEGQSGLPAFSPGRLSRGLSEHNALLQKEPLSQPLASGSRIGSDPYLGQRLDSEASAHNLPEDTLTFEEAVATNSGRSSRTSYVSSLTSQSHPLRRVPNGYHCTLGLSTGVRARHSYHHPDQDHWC
Ca2+ channel (N), sequence (P54290 25-944 partner limits assumed): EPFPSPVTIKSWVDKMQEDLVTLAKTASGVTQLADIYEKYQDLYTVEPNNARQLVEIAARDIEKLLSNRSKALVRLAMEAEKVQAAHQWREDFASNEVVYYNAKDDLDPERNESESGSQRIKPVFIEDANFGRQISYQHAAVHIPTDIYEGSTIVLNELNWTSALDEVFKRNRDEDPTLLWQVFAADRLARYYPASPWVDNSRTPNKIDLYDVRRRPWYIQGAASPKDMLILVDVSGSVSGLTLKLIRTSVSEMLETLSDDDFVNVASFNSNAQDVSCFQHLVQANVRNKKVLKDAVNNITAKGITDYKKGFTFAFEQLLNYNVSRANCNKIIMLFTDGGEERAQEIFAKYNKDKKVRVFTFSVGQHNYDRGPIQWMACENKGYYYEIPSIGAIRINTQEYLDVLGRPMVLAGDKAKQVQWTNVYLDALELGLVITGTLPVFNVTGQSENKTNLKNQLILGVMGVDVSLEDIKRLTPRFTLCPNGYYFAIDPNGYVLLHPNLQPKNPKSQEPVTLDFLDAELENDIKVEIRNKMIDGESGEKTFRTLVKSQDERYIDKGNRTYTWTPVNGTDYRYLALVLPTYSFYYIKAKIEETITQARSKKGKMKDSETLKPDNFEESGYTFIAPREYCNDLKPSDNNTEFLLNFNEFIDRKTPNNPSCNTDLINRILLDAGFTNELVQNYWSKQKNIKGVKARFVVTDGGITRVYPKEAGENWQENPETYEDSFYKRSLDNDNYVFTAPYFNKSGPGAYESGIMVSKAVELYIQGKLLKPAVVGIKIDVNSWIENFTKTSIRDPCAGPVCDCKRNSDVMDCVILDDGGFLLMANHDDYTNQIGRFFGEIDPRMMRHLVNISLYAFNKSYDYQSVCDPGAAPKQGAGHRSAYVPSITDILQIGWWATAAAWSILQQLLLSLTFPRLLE
Ca2+ channel (N), sequence (P54290 945-1091 partner limits assumed): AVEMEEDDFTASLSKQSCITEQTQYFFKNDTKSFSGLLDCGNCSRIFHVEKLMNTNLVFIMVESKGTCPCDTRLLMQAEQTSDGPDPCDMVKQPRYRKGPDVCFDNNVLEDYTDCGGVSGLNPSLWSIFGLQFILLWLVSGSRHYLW
Ca2+ channel (N), sequence (P54287 whole entry partner): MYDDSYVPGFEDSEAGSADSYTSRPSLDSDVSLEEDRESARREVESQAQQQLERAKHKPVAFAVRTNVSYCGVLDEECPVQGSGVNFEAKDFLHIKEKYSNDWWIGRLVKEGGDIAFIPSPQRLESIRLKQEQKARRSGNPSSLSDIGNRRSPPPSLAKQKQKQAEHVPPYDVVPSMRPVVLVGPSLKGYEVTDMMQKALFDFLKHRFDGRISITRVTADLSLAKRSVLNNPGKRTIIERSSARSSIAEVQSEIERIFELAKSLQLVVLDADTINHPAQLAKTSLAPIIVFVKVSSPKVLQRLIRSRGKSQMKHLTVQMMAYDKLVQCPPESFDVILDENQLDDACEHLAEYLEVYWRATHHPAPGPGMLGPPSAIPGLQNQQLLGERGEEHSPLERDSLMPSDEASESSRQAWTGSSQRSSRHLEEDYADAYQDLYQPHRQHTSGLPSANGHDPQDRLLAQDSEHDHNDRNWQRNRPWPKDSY
T4 sequence (Q99705 whole entry): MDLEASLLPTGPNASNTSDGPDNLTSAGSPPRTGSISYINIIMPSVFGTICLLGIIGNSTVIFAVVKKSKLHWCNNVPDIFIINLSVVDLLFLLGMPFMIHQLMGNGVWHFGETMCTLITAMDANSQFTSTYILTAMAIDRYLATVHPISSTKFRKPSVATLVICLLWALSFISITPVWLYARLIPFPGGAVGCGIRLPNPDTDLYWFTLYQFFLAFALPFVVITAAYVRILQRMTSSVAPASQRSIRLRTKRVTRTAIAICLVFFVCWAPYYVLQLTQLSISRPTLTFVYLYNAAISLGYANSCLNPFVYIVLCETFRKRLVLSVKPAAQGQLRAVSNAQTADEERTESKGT

The term inhibition denotes the change of the read-out against control, counted positive when it falls. By fraction unbound is commonly meant the share of the substance not bound to proteins or other matrix. A low value points to extensive binding. Take `Cn1c(=O)n(CCCO)c(=O)c2c1nc(Oc1cccc(Cl)c1)n2Cc1ccc(Cl)cc1` [HC-070]: the inhibition at 1 µM at α2C (h) (read-out: % Inhibition 1st) is 7.9%; at α2C (h) (read-out: % Inhibition 2nd), -1%; on α2C (h) (read-out: % Inhibition Mean), 3.5%; on GABA transaminase (read-out: % Inhibition 1st), -33.1%; on GABA transaminase (read-out: % Inhibition Mean) it was -34.6%. Also, the nonspecific tissue binding in [1] (8 h, 1 μM) is given as above 99%. The same molecule registered a fraction unbound at 8 h, 1 μM in series [1] (brain homogenate) of 0.0028 ± 0.0002. This molecule also displayed a concentration in brain in series [2] (iv, 1 mg/kg, 2 h) of 299 ± 11 nmol/kg. Besides, the “concentration in brain tissue” value in series [2] (po, 10 mg/kg, 2 h) came to 525 ± 72 nmol/kg. In [2] (po, 10 mg/kg, 2 h), this molecule showed an unbound brain concentration of 1.5 nmol/kg. The MRTdisp in series [2] (male, iv, 1 mg/kg) is 1.9 h. Moreover, the MRTtot in series [2] (male, po, 10 mg/kg) is recorded as 4.5 h.

Regarding `Cn1c(=O)n(CCCO)c(=O)c2c1nc(Oc1cccc(OC(F)(F)F)c1)n2Cc1ccc(Cl)cc1` [HC-608], the inhibition at 1 µM on GABAB(1b) (h) (read-out: % Inhibition 1st) was -9%; on GABAB(1b) (h) (read-out: % Inhibition 2nd), -7.8%; on GABAB(1b) (h) (read-out: % Inhibition Mean) it was -8.4%; on PDE4D2 (h) (read-out: % Inhibition 1st), 1.3%; at PDE4D2 (h) (read-out: % Inhibition 2nd) it was -2%; on PDE4D2 (h) (read-out: % Inhibition Mean), -0.3%. Further, the inhibition at 1 µM in series [3] (read-out: % Inhibition 1st) is -5.8%; in series [3] (read-out: % Inhibition 2nd), -1.9%; in [3] (read-out: % Inhibition Mean) it was -3.9%; at MCH1 (h) (read-out: % Inhibition 1st), 7.9%; on MCH1 (h) (read-out: % Inhibition 2nd) it was -27.2%; on MCH1 (h) (read-out: % Inhibition Mean), -9.6%. The inhibition at 1 µM was -27% at sst4 (h) (read-out: % Inhibition 1st); 9.5% on sst4 (h) (read-out: % Inhibition 2nd); -8.8% at sst4 (h) (read-out: % Inhibition Mean); -25.4% on motilin (h) (1.0E-06 M, read-out: % Inhibition 1st); -16.2% on motilin (h) (1.0E-06 M, read-out: % Inhibition 2nd); -20.8% on motilin (h) (read-out: % Inhibition Mean). Further, the inhibition at 1 µM on Ca2+ channel (N) (read-out: % Inhibition 1st) was -5.9%; on Ca2+ channel (N) (read-out: % Inhibition 2nd), -13.1%; at Ca2+ channel (N) (read-out: % Inhibition Mean), -9.5%; in series [4] (read-out: % Inhibition 1st) it was 1.7%; in [4] (read-out: % Inhibition 2nd), 3.1%; in series [4] (read-out: % Inhibition Mean), 2.4%. The “% Inhibition 1st” value was 3.2% with TR (TH), -0.9% at p38α kinase (h), 3.0% in the series on ATPase (Na+/K+) and 19% with NMDA. In addition, the “% Inhibition 2nd” value in the series on TR (TH) is given as -1.6%; at p38α kinase (h), -1.2%; in the series on ATPase (Na+/K+), -1.5%; in the series on NMDA it was 3.2%. Besides, the “% Inhibition Mean” value in the series on TR (TH) is on record as 0.8%; at p38α kinase (h), -1.1%; in the series with ATPase (Na+/K+), 0.8%; in the series with NMDA, 11.1%.

For the origin of these results see article PMC5791972 (PLoS ONE, 2018).
